# Data published in patent US6916845B2, “Method for prevention and treatment of male and female sexual dysfunction” (priority 1999, dated 2005).
# Key:
# [1] = tested on: rabbit's CC smooth muscle; assay: Relaxation of PHE pre-contracted corpus cavernosum smooth muscle strips in organ chamber; type: cell-based; details: for effect of pre-treatment on the relaxation effects of icariin: pre-treatment before icariin
# Protocol: Sixty adults male New Zealand white rabbits(Weight: 2.5-3.0 kg) were used. Rabbits were anesthesia with sodium pentobarbital(50 mg/kg), penis was removed and corpus cavernous tissue were carefully isolated and made into 2×2×6 mm muscle strips for isometric tension was measured in organ chamber in vitro study with polygraph(MP 100 WS:Biopac systems, USA). CC muscle strip was fixed in 10 ml organ chamber containing Tyrode solution and continuously supplied with mixed gas(95% O2 and 5% CO2) and keep temperature at 37° C. The initial resting tensions of muscle strips were set at 2 g and tissue was allowed to equilibrate for 1.5-3.0 hours. Sub-maximal contractile responses to phenylepherine(PHE 5×10^-6 M) were observed and optimal isometric tension was determined. To evaluate the relaxation effects of icariin (the other components magnoflorine, querectin, epimedin A, B and C as the controls) on CC muscle strips, investigated the relaxation effects of different dosage of icariin on muscle strips pre-contracted by PHE. And to investigate the pharmaceutical action mechanism, the effects of […] Nω-nitric-L-arginine(L-NNA), guanylate cyclase antagonist methylene blue and pyrogallol, soluble guanylate cyclase inhibitor 1H-[1,2,4]oxadiazolo[4,3,-a]quinoxalin-1-one (ODQ) on the relaxation effects of icariin on CC.
# [2] = tested on: adult male rat; assay: Intracavernosal press (ICP) changes after intracavernosal administration and cavernous nerve electrical stimulation; type: in vivo; details: for Inhibiting Effect on Icariin induced Relaxation of CC. (ICP changes): 10 minutes after Icariin 100 μl 10^−4M
# Protocol: Twenty-four male, adult Wistar rats(weight:300-350 g) were used. After anesthetization, the left carotid artery was cannulated to monitor mean arterial pressure (MAP). Bipolar electrodes were positioned on the cavernous nerve (CN); the right cavernous body was cannulated with 26 G needle connected with Biopack MP100 to monitor ICP changes. After intracavemosal administration of 100 μl different concentration Icariin or Reserpine (10^−8M to 10^−4M) respectively, the CN was electrically stimulated (ES) 10 minutes later and ICP and MAP were monitored. In order to investigate the possible mechanism of the effect of icariin on ICP changes, 100 μl different concentration guanylate cyclase inhibitor ODQ (10^−8M-10^−4M) were intracavemosal administrated 10 minutes after Icariin (100 μl 10^−4M) administration into CC, and then the ICP was measured during erection, which was, followed the ES.
# [3] = tested on: cGMP formation in rabbit corpus cavernosum; assay: cGMP formation in corpus cavernosum of penis stimulated with SNP, radioimmunoassay; type: cell-based; details: in the presence of SNP
# [4] = tested on: patients; details: patients on antihypertensive agent; cited from earlier work
# [5] = tested on: cGMP formation in clitoris CC of female rabbits; assay: cGMP formation in CC of clitoris stimulated with SNP, radioimmunoassay; type: cell-based, rabbit
# [6] = tested on: PDE4 isolated from human liver tissue; assay: Inhibition of cAMP specific PDE4, two-step radioisotope procedure; type: biochemical
# Protocol: PDE5 and PDE4 were isolated from human platelets and liver tissue using a Pharmacia FPLC system and Mono Q column. The cyclic nucleotide PDE5/PDE4 activities in FPLC fractions were determined using a modification of the two-step radioisotope procedure ([^3H]GMP/[^3H]AMP).
smiles,measurement,setting,value
"NC(=NCCC[C@H](N)C(=O)O)N[N+](=O)[O-] [L-NNA, Nω-nitric-L-arginine]",icariin induced relaxation of CC smooth muscle strips after pre-treatment with the named inhibitor,[1]; icariin 10^−4M,15.68 ± 1.15%
same,icariin induced relaxation of CC smooth muscle strips after pre-treatment with the named inhibitor,[1]; icariin 10^−5M,3.23 ± 0.89%
same,icariin induced relaxation of CC smooth muscle strips after pre-treatment with the named inhibitor,[1]; icariin 10^−6M,0.82 ± 0.58%
same,effect of pre-treatment on the relaxation effects of icariin,[1],significantly inhibited
"CN(C)c1ccc2nc3ccc(=[N+](C)C)cc-3sc2c1 [Methylene blue, methylene blue]",icariin induced relaxation of CC smooth muscle strips after pre-treatment with the named inhibitor,[1]; icariin 10^−4M,13.45 ± 1.12%
same,icariin induced relaxation of CC smooth muscle strips after pre-treatment with the named inhibitor,[1]; icariin 10^−5M,2.02 ± 0.45%
same,icariin induced relaxation of CC smooth muscle strips after pre-treatment with the named inhibitor,[1]; icariin 10^−6M,0.52 ± 0.68%
same,effect of pre-treatment on the relaxation effects of icariin,[1],significantly inhibited
"O=c1onc2cnc3ccccc3n12 [ODQ, 1H-[1,2,4]oxadiazolo[4,3,-a]quinoxalin-1-one]",Inhibiting Effect on Icariin induced Relaxation of CC. (ICP changes),[2]; ODQ 10^−4M,80.24 ± 8.05%
same,Inhibiting Effect on Icariin induced Relaxation of CC. (ICP changes),[2]; ODQ 10^−5M,58.45 ± 6.00%
same,Inhibiting Effect on Icariin induced Relaxation of CC. (ICP changes),[2]; ODQ 10^−6M,23.09 ± 4.29%
same,Inhibiting Effect on Icariin induced Relaxation of CC. (ICP changes),[2]; ODQ 10^−7M,17.16 ± 1.77%
same,icariin induced relaxation of CC smooth muscle strips after pre-treatment with the named inhibitor,[1]; icariin 10^−4M,10.45 ± 1.08%
same,icariin induced relaxation of CC smooth muscle strips after pre-treatment with the named inhibitor,[1]; icariin 10^−5M,1.85 ± 0.35%
same,icariin induced relaxation of CC smooth muscle strips after pre-treatment with the named inhibitor,[1]; icariin 10^−6M,0.42 ± 0.48%
same,effect of pre-treatment on the relaxation effects of icariin,[1],significantly inhibited
"COc1ccc(Cc2nccc3cc(OC)c(OC)cc23)cc1OC [Papaverine, papaverine]",cGMP concentration changes,[3]; 10^−3M,11.43 ± 65 fmol/mg/min
same,cGMP concentration changes,[3]; 10^−4M,9.82 ± 2.16 fmol/mg/min
same,cGMP concentration changes,[3]; 10^−5M,8.92 ± 1.87 fmol/mg/min
same,cGMP concentration changes,[3]; 10^−6M,8.66 ± 2.07 fmol/mg/min
"Oc1cccc(O)c1O [Pyrogallol, pyrogallol]",icariin induced relaxation of CC smooth muscle strips after pre-treatment with the named inhibitor,[1]; icariin 10^−4M,15.68 ± 1.15%
same,icariin induced relaxation of CC smooth muscle strips after pre-treatment with the named inhibitor,[1]; icariin 10^−5M,3.45 ± 0.73%
same,icariin induced relaxation of CC smooth muscle strips after pre-treatment with the named inhibitor,[1]; icariin 10^−6M,0.85 ± 0.45%
same,effect of pre-treatment on the relaxation effects of icariin,[1],significantly inhibited
"COC(=O)[C@H]1[C@H]2C[C@@H]3c4[nH]c5cc(OC)ccc5c4CCN3C[C@H]2C[C@@H](OC(=O)c2cc(OC)c(OC)c(OC)c2)[C@@H]1OC [Reserpine, reserpine]",Inhibiting effects on ICP,[2]; Reserpine 10^−4M intracavernosal,59.63%
same,Inhibiting effects on ICP,[2]; Reserpine 10^−5M intracavernosal,33.34%
same,Inhibiting effects on ICP,[2]; Reserpine 10^−6M intracavernosal,17.39%
same,Inhibiting effects on ICP,[2]; Reserpine 10^−7M intracavernosal,4.81%
same,"sexual dysfunction associated with the agent, % of patients",[4],30-40%
CCCc1nn(C)c2c(=O)[nH]c(-c3cc(S(=O)(=O)N4CCN(C)CC4)ccc3OCC)nc12 [Sildenafil],cGMP concentration in clitoris CC,[5],significantly increased
same,EC50,"[5]; Oryctolagus cuniculus, stimulated with SNP, read-out: EC50 (cGMP formation, CC of clitoris)",310 nM
same,cGMP concentration changes,[3]; 10^−3M,12.35 ± 2.56 fmol/mg/min
same,cGMP concentration changes,[3]; 10^−4M,11.98 ± 2.39 fmol/mg/min
same,cGMP concentration changes,[3]; 10^−5M,12.69 ± 2.24 fmol/mg/min
same,cGMP concentration changes,[3]; 10^−6M,10.65 ± 2.28 fmol/mg/min
same,EC50,"[3]; Oryctolagus cuniculus, read-out: EC50 (cGMP formation, CC of penis)",310 nM
same,IC50,[6],14.6 µM
C[C@](N)(Cc1ccc(O)c(O)c1)C(=O)O [alpha-methyldopa],"sexual dysfunction associated with the agent, % of patients",[4],20-30%
NS(=O)(=O)c1cc2c(cc1C(F)(F)F)NC(Cc1ccccc1)NS2(=O)=O (stereo not drawn) [bendrofluazide],"sexual dysfunction associated with the agent, % of patients",[4],36%
Clc1cccc(Cl)c1NC1=NCCN1 [clodidine],"sexual dysfunction associated with the agent, % of patients",[4],41%
COc1ccc(-c2oc3c(CC=C(C)C)c(OC4OC(CO)C(O)C(O)C4O)cc(O)c3c(=O)c2OC2OC(C)C(O)C(O)C2OC2OC(CO)C(O)C(O)C2O)cc1 (stereo not drawn) [epimedin A],relaxation effects on CC,[1],no significant relaxation effects
COc1ccc(-c2oc3c(CC=C(C)C)c(O[C@@H]4O[C@H](CO)[C@@H](O)[C@H](O)[C@H]4O)cc(O)c3c(=O)c2O[C@@H]2O[C@@H](C)[C@H](O)[C@@H](O)[C@H]2O[C@@H]2OC[C@@H](O)[C@H](O)[C@H]2O)cc1 [epimedin B],relaxation effects on CC,[1],no significant relaxation effects
COc1ccc(-c2oc3c(CC=C(C)C)c(O[C@@H]4O[C@H](CO)[C@@H](O)[C@H](O)[C@H]4O)cc(O)c3c(=O)c2O[C@@H]2O[C@@H](C)[C@H](O)[C@@H](O)[C@H]2O[C@@H]2O[C@@H](C)[C@H](O)[C@@H](O)[C@H]2O)cc1 [epimedin C],relaxation effects on CC,[1],no significant relaxation effects
COc1ccc2c(c1O)-c1c(O)c(OC)cc3c1[C@H](C2)[N+](C)(C)CC3 [magnoflorine],relaxation effects on CC,[1],no significant relaxation effects
O=c1c(O)c(-c2ccc(O)c(O)c2)oc2cc(O)cc(O)c12 [querectin],relaxation effects on CC,[1],no significant relaxation effects
